Measurements as given in patent publication US8426447B2, “Spiro-tricyclic ring compounds as beta-secretase modulators and methods of use” (Amgen Inc., priority 2008, dated 2013).
pIC50: −log10 of the molar value.

Columns and labels:
BACE1 [1] = target: T1, BACE1 (Homo sapiens, UniProt P56817); assay: In Vitro Enzymatic BACE FRET (Fluorescence Resonance Energy Transfer) Assay; format: biochemical; conditions: read-out: BACE1 FRET assay; for IC50: Table III, IC50's in uM ranges
How it was run: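 Buffer 0.05 M acetate pH 4.2 with 10% DMSO final and 100 uM genapol; reaction started with 50 nM FRET peptide substrate (fluorophore/quencher flanking BACE cleavage site), incubated one hour. Stopped with Tris buffer raising pH to neutrality, then fluorescence read.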

BACE1 [2] = target: T1, BACE1; assay: In Vitro BACE Cell-based Assay (HEK cell assay): Aβ40 in conditioned medium of cells stably expressing Amyloid Precursor Protein, sandwich ELISA; conditions: read-out: HEK cell assay; for IC50: Table III, IC50's in uM ranges
How it was run: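 Read-out is time-resolved fluorescence of Aβ40 in supernatant, captured by pAb40 and detected with biotinylated 6E10 plus Streptavidin-Europium. Cells stably expressing APP received compounds for 24 h over 10 concentrations starting at 100 μM or 10 μM, final DMSO 0.1%.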

T1 sequence (P56817 46-501, species assumed): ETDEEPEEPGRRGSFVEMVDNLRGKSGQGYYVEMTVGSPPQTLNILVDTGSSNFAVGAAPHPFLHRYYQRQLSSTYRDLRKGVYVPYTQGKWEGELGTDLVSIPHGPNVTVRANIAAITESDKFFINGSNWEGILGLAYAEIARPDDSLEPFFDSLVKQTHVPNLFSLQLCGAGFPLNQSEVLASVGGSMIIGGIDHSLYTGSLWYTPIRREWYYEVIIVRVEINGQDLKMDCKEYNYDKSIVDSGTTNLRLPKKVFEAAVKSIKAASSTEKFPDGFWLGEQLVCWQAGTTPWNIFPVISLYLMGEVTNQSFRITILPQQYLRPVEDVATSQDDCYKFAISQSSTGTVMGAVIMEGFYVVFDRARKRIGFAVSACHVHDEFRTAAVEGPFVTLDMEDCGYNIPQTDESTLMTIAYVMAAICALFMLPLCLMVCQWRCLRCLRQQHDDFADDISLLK

pIC50 (BACE1 [1]; Table IV, class symbols) | pIC50 (BACE1 [2]; Table IV, class symbols) | pIC50 (BACE1 [1]) | also measured | Structure (SMILES)
5.30 to 6.00 | < 5.30 |  |  | COc1cc(F)c2c(c1)[C@]1(COC(N)=N1)c1cc(-c3cncnc3)cnc1O2 [compound 584]
 |  | 5.30 to 6.00 | pIC50 (BACE1 [2]): 5.30 to 6.00 | NC1=N[C@]2(CO1)c1cc(-c3ccccc3)ccc1Oc1ncc(C3=CCOCC3)cc12 [compound 718]
6.00 to 7.00 | 6.00 to 7.00 |  |  | NC1=N[C@@]2(CO1)c1cc(-c3cncnc3)ccc1Oc1ccc(C(F)(F)F)cc12 [compound 597]
 |  |  | pIC50 (BACE1 [1]; in vitro BACE FRET enzyme assay, IC50 class symbols): > 7.00; pIC50 (BACE1 [2]; HEK cell-based assay, Aβ40 in conditioned medium, IC50 class symbols): > 7.00 | N#Cc1cccc(-c2cc3c(cn2)Oc2ccc(-c4cccnc4F)cc2[C@@]32COC(N)=N2)c1 [compound 373]
 |  |  | IC50 (BACE1 [1]): < 0.1 µM; IC50 (BACE1 [2]): 0.1 to 1 µM | CC1(COc2ccc3c(c2)[C@]2(COC(N)=N2)c2cc(-c4cncnc4)cnc2O3)COC1 [compound 166]
 |  | 6.00 to 7.00 | pIC50 (BACE1 [2]; HEK cells): < 5.30 | NC1=N[C@@]2(CO1)c1cc(-c3ccccc3F)ccc1Oc1cnc(Cl)cc12 [compound 425]
6.00 to 7.00 | 5.30 to 6.00 |  |  | COc1ccc2c(c1)[C@]1(COC(N)=N1)c1cc(-c3cncc4ccccc34)ccc1O2 [compound 634]
 |  | > 7.00 | pIC50 (BACE1 [2]; HEK cells): > 7.00 | CC(C)(F)COc1cnc2c(c1)[C@]1(COC(N)=N1)c1cc(-c3cccnc3F)ccc1O2 [compound 449]
 |  |  | IC50 (BACE1 [1]): < 0.1 µM; IC50 (BACE1 [2]): 0.1 to 1 µM | CC(C)(C)C[C@@H](F)c1ccc2c(c1)[C@]1(COC(N)=N1)c1cc(-c3cncnc3)ccc1O2 [116b, (4S)-2′-((1R)-1-fluoro-3,3-dimethylbutyl)-7′-(5-pyrimidinyl)spiro[1,3-oxazole-4,9′-xanthen]-2-amine]
 |  | 6.00 to 7.00 | pIC50 (BACE1 [2]): 6.00 to 7.00 | CC(C)(C)OC(=O)Cc1ccc2c(c1)[C@]1(COC(N)=N1)c1cc(-c3cncnc3)ccc1O2 [compound 765]
 |  | > 7.00 | pIC50 (BACE1 [2]; HEK cells): > 7.00 | NC1=N[C@@]2(CO1)c1cc(-c3cc(F)ccc3F)ccc1Oc1ncc(C3=CCOCC3)cc12 [compound 487]
> 7.00 | 6.00 to 7.00 |  |  | CC(C)(C)C#Cc1cnc2c(c1)[C@]1(COC(N)=N1)c1cc(-c3ccnnc3)ccc1O2 [compound 653]
> 7.00 | 6.00 to 7.00 |  |  | CC(C)(C)COc1ccc2c(c1)[C@]1(COC(N)=N1)c1cc(-c3cccnc3Cl)ccc1O2 [compound 913]
 |  | 6.00 to 7.00 | pIC50 (BACE1 [2]): 5.30 to 6.00 | NC1=N[C@]2(CO1)c1ccncc1Oc1ccc(-c3cccnc3)cc12 [compound 675]
> 7.00 | 6.00 to 7.00 |  |  | CC(C)(C)c1nc(-c2ccc3c(c2)[C@]2(COC(N)=N2)c2cc(-c4cccnc4)ccc2O3)cs1 [compound 622]
> 7.00 | 6.00 to 7.00 |  |  | COc1ccc(-c2ccc3c(c2)[C@]2(COC(N)=N2)c2cc(-c4cncnc4)ccc2O3)cc1OC [compound 830]
 |  | 6.00 to 7.00 | pIC50 (BACE1 [2]): 5.30 to 6.00 | CC(C)(C)COc1ccc2c(c1)[C@]1(COC(N)=N1)c1cc(C3=CCCC3)ccc1O2 [compound 731]
 |  |  | pIC50 (BACE1 [1]; Table 1): < 5.30; pIC50 (BACE1 [2]; Table 1, Aβ40, 24 h incubation): 5.30 to 6.00 | COc1ccc2c(c1)C1(COC(N)=N1)c1cc(-c3ccccc3C)ccc1O2 (stereo not shown) [Example 32, 2′-methoxy-7′-(2-methylphenyl)spiro[1,3-oxazole-4,9′-xanthen]-2-amine]
 |  | 6.00 to 7.00 | pIC50 (BACE1 [2]): 5.30 to 6.00 | COc1ccc2c(c1)[C@@]1(COC(N)=N1)c1cc(-c3cccnc3)cnc1O2 [compound 670]
 |  |  | pIC50 (BACE1 [1]; Table 1): < 5.30; pIC50 (BACE1 [2]; Table 1, Aβ40, 24 h incubation): < 5.30 | COc1cccc(-c2ccc3c(c2)C2(COC(N)=N2)c2ccc(C)cc2O3)c1F (stereo not shown) [Example 30, 2′-(2-fluoro-3-methoxyphenyl)-6′-methylspiro[1,3-oxazole-4,9′-xanthen]-2-amine]
 |  | > 7.00 | pIC50 (BACE1 [2]; HEK cells): > 7.00 | CC1(C#Cc2cnc3c(c2)[C@]2(COC(N)=N2)c2cc(-c4ccccc4F)ccc2O3)COC1 [compound 520]
 |  | > 7.00 | pIC50 (BACE1 [2]; HEK cells): > 7.00 | NC1=N[C@@]2(CO1)c1cc(-c3cccnc3)ccc1Oc1cnc(N3CCNCC3)cc12 [compound 439]
> 7.00 | 5.30 to 6.00 |  |  | CC(C)(C)COc1ccc2c(c1)[C@]1(COC(N)=N1)c1cc(-c3cccs3)ccc1O2 [compound 834]
 |  |  | pIC50 (BACE1 [1]; Table 1): 6.00 to 7.00; pIC50 (BACE1 [2]; Table 1, Aβ40, 24 h incubation): 5.30 to 6.00 | CCCOc1ccc2c(c1)[C@@]1(COC(N)=N1)c1cc(-c3cncnc3)ccc1O2 [Example 11, (4R)-2′-propoxy-7′-(5-pyrimidinyl)spiro[1,3-oxazole-4,9′-xanthen]-2-amine]
 |  | 6.00 to 7.00 | pIC50 (BACE1 [2]): 5.30 to 6.00 | CNCc1ccc(-c2ccc3c(c2)[C@]2(COC(N)=N2)c2cc(OCC(C)(C)C)ccc2O3)cc1 [compound 784]
6.00 to 7.00 | 6.00 to 7.00 |  |  | NC1=N[C@@]2(CO1)c1cnccc1Oc1ccc(-c3cccnc3)cc12 [compound 556]
